In general, TGI refers to the concentration at which net growth stops. Low values mean greater sensitivity of the cells, high ones lower sensitivity of the cells. For orientation: GI50 means the concentration that inhibits growth by half.

The values below come from PubChem BioAssay (NCI).

Test systems include XF 498 CNS; DMS 273 small cell lung; RXF-631 renal; T-47D breast; MDA-N; DU-145 prostate; HS 578T breast.
Assay in all cases: DTP human tumour cell line panel, 48 h

Molecules are shown by their SMILES. Several values for one entry are separate records, joined by “and”; a condition that tells them apart may be missing. Equal values may be shown once.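 The compound was tested at five concentrations on cells cultured in 96-well plates, with a 48-hour exposure period. GI50: concentration for 50% inhibition of growth. The concentration for full growth arrest is given as TGI.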 Where only a bound is given, the exact number is not on record here.

Turning to `CCc1c(-c2coc(CC/C(C)=C/c3ccccc3)n2)oc(OC)c(C)c1=O`, the TGI is 75.4 µM with XF 498 CNS and more than 54.7 µM in the assay with DMS 273 small cell lung.
On to `COc1cc(C(=C2SCCS2)c2nccc3cc(OC)c(OC)cc23)c([N+](=O)[O-])cc1OC`, for which the TGI in the assay on XF 498 CNS and in the assay on DMS 273 small cell lung was more than 100 µM each time.
As for `O=c1cc(-c2ccc[nH]2)[nH]c2cc3c(cc12)OCO3`, the TGI is 89.2 µM in the assay on XF 498 CNS, more than 100 µM with DMS 273 small cell lung and more than 100 µM with RXF-631 renal.
For `O=C(O)CCc1nc(-c2ccccc2)c(-c2ccccc2)o1`, the TGI in the assay with T-47D breast, with MDA-N, in the assay with DU-145 prostate and with HS 578T breast was more than 100 µM throughout.
In the case of `CC(=O)Oc1cc(OC(C)=O)c2cc3c(cc2c1OC(C)=O)C(=O)C1(CCCC1)C3=O`, the TGI in the assay with XF 498 CNS was found to be 30 µM; in the assay on DMS 273 small cell lung, 35.8 µM.
Regarding `CN(Cc1ccccc1)c1nc(=[N+](C)C)ss1`, the TGI in the assay on XF 498 CNS, in the assay with DMS 273 small cell lung and in the assay with RXF-631 renal was more than 100 µM throughout.
As to `O/N=C1/C(=C/c2ccc(Cl)cc2)CCCC1C(NO)c1ccc(Cl)cc1` (stereo unspecified), the TGI in the assay on XF 498 CNS was 60.1 µM; in the assay with DMS 273 small cell lung, 41.2 µM; with RXF-631 renal it was 41 µM.
Taken in the same sequence, the figures for `O=C(Cc1nc2ccccc2s1)C(=O)Nc1ccc(Cl)cc1Cl` were more than 100 µM, more than 100 µM and more than 100 µM.
`CCN1CCC(O)(c2ccc(Cl)c(Cl)c2)C(C(=O)c2ccc(Cl)c(Cl)c2)C1` (stereo unspecified): the TGI in the assay with XF 498 CNS was determined as 34.4 µM; with DMS 273 small cell lung it was 34 µM.
Take `c1ccc([P+](CCC[P+](c2ccccc2)(c2ccccc2)c2ccccc2)(c2ccccc2)c2ccccc2)cc1`: the GI50 was 4.1 µM in the assay with T-47D breast, 19.9 µM in the assay on DU-145 prostate and 11.8 µM in the assay with HS 578T breast. The TGI in the assay with T-47D breast is 84.9 µM; in the assay on XF 498 CNS, 77.9 µM; in the assay on DMS 273 small cell lung it was 47.9 µM; in the assay on DU-145 prostate, more than 100 µM; in the assay with HS 578T breast, 85.4 µM; in the assay on RXF-631 renal, more than 100 µM.
In the case of `COc1cc(CCC(=O)NS(=O)(=O)c2ccccc2)cc(OC)c1OC`, the TGI with XF 498 CNS and with DMS 273 small cell lung was more than 100 µM each time.
With `CC(C)(C)[Si](Nc1ccccc1)(c1ccccc1)c1ccccc1`, the results for the TGI with XF 498 CNS, in the assay with DMS 273 small cell lung and in the assay on RXF-631 renal were 27.8 µM, 27.3 µM and 29.6 µM, respectively.
On to `CCCCCCCCCCCCCCCCCCOCC1(COP(=O)([O-])OCC[N+](C)(C)C)CCCO1` (stereo unspecified), for which the TGI in the assay with XF 498 CNS is 20.5 µM; with DMS 273 small cell lung, 3.13 µM.
For the compound `Cn1c2cc(Cl)ccc2c2ccc3c(c21)C(=O)C=CC3=O`, the TGI in the assay with T-47D breast was 55.6 µM; in the assay on MDA-N it was 83.1 µM; in the assay with DU-145 prostate, more than 100 µM; in the assay on HS 578T breast, more than 100 µM.
`C/C=C/COc1cc(NC(=S)c2ccoc2C)ccc1OC`: the TGI in the assay with T-47D breast was more than 100 µM; in the assay on MDA-N, more than 100 µM; with DU-145 prostate, more than 100 µM; with HS 578T breast it was 90.7 µM.
As to `CN(C)C(=S)/N=c1\ssc(=S)n1Cc1ccccn1`, the TGI is 34.3 µM in the assay with XF 498 CNS and more than 100 µM in the assay on RXF-631 renal.
`CN(C)NC(=S)NC12CC3CC(CC(C3)C1)C2`: the concentration for total growth inhibition (TGI) with XF 498 CNS and with DMS 273 small cell lung was more than 100 µM in each case.
Turning to `CC(=O)OC1C/C(C)=C/[C@H](O)CC(C)/C=C/[C@@]2(C)CCC(C(C)(C)O)C12` (stereo partly specified), the TGI in the assay on XF 498 CNS, in the assay with DMS 273 small cell lung and in the assay with RXF-631 renal was more than 100 µM each time.
On to `CCCCCC/C=C\CCCCCCCCCc1c(O)c(OC)cc(O)c1CN(C)C`, for which the TGI with T-47D breast came to 4.2 µM; in the assay with MDA-N, 32.2 µM; with DU-145 prostate it was 36 µM; in the assay on HS 578T breast, 10.9 µM.
Regarding `CCCCCCCCCCCCOC(=S)NC`, the TGI in the assay with XF 498 CNS was found to be 35.7 µM; with DMS 273 small cell lung, 34.4 µM.
On to `Oc1cccc2nc3cc(CN4CCOCC4)c(CN4CCOCC4)cc3nc12`, for which the TGI with XF 498 CNS, in the assay with DMS 273 small cell lung and in the assay with RXF-631 renal was more than 100 µM throughout.
`Cc1ccc(C(=O)NC(C)C)cc1N=NN(C)C`: the TGI in the assay on DMS 273 small cell lung was more than 100 µM.
`C[C@@]1(CBr)C[C@@](C)(/C=C/Cl)[C@@H](Cl)C[C@H]1Cl`: the TGI in the assay with XF 498 CNS was 24.5 µM; in the assay on DMS 273 small cell lung, 22.8 µM; in the assay with RXF-631 renal, 24.2 µM.
With `Cn1c(=O)c2[nH]cnc2n(CC(=O)O)c1=O`, the TGI with XF 498 CNS, with DMS 273 small cell lung and in the assay with RXF-631 renal was more than 100 µM throughout.
Consider `COC(=O)C(C(=O)C(=O)Nc1ccc(C)cc1C)c1nc2ccc([N+](=O)[O-])cc2[nH]c1=O` (stereo unspecified), for which the TGI with XF 498 CNS, in the assay with DMS 273 small cell lung and in the assay with RXF-631 renal was more than 100 µM in each case.
Consider `COC(=O)NN=C1C(C)(C)C(=NNC(=O)OC)C1(C)C`, for which the TGI in the assay on XF 498 CNS, with DMS 273 small cell lung and in the assay with RXF-631 renal was more than 100 µM in each case.
With `O=C(O)C1=C(Cl)c2ccccc2S1(=O)=O`, the TGI in the assay on XF 498 CNS and with RXF-631 renal was more than 100 µM in each case.
Turning to `COC(=O)c1cccc2c1Oc1ccccc1S2`, the TGI in the assay on T-47D breast, in the assay with MDA-N, in the assay with DU-145 prostate and in the assay with HS 578T breast was more than 100 µM each time.
`NC(=O)C12CCC1C1CCCCC12N1CCOCC1` (stereo unspecified) registered a TGI with RXF-631 renal of more than 100 µM.
Take `NC(N)=N/N=C(/c1ccccc1)c1ccc(O)cc1O`: the TGI in the assay on T-47D breast is more than 100 µM; in the assay with MDA-N, 28.6 µM; in the assay with DU-145 prostate it was more than 100 µM; in the assay with HS 578T breast, 80.3 µM.
In the case of `C=CC[C@@]1(C#N)C[C@H](C[C@]2(C#N)C[C@H](CCl)OC(C)(C)O2)OC(C)(C)O1`, the TGI in the assay on XF 498 CNS and in the assay on DMS 273 small cell lung was more than 100 µM each time.
With `CN(/C(=N\O)c1ccccc1)c1ccccc1`, the TGI with DMS 273 small cell lung was determined as 50.7 µM.
Regarding `COc1ccc2c(c1)Cc1c-2[nH]c2cc3c(cc2c1=O)OCO3`, the TGI in the assay on XF 498 CNS turned out to be 38.3 µM; in the assay on DMS 273 small cell lung, 24.7 µM.
Turning to `CCCCCC/C=C/CCCCCCCc1cccc(O)c1C(=O)O`, the TGI with XF 498 CNS, with DMS 273 small cell lung and in the assay on RXF-631 renal was more than 100 µM in each case.
In the case of `CCC(C)c1cnc(CC(C)C)c(=O)[nH]1` (stereo unspecified), the TGI in the assay on T-47D breast, in the assay on MDA-N, in the assay on DU-145 prostate and with HS 578T breast was more than 100 µM in each case.
On to `Oc1oc(-c2ccccc2)nc1/C=C1/C=NN=N1`, for which the TGI in the assay on T-47D breast, in the assay on MDA-N, in the assay with DU-145 prostate and in the assay on HS 578T breast was more than 100 µM each time.
`CC(C)[C@H](O)C(=O)N[C@H]1Cc2ccc3c(c2)[C@]24C5=C(N=C(O5)[C@H](C(C)C)NC1=O)c1nc(Cl)c(o1)-c1c(Cl)[nH]c5cccc(c15)-c1cccc2c1N[C@H]4O3`: the TGI with T-47D breast is more than 10 µM; in the assay on MDA-N, 0.00429 µM; with DU-145 prostate, 0.748 µM; in the assay with HS 578T breast, more than 10 µM. Moreover, the GI50 with DU-145 prostate is less than 0.001 µM.
Turning to `CN1CCN(c2ccc([N+](=O)[O-])c3no[n+]([O-])c23)CC1`, the results for the GI50 in the assay on T-47D breast, in the assay on DU-145 prostate and in the assay with HS 578T breast were 0.6 µM, 0.302 µM and 0.228 µM, respectively. Besides, the TGI in the assay with T-47D breast was 1.16 µM and 2.65 µM; in the assay with MDA-N, 2.74 µM; with DU-145 prostate it was 1.99 µM and 1.28 µM; in the assay on HS 578T breast it was 2.41 µM and 1.93 µM.
As to `CC(=O)NNc1nc(C)c(C(/C=C/c2ccc(Cl)cc2)=N/NC(=S)NN)s1`, the TGI in the assay on XF 498 CNS, in the assay with DMS 273 small cell lung and in the assay on RXF-631 renal was more than 100 µM each time.
Compound `C[n+]1ccc2[nH]c3ccccc3c2c1` gave a TGI in the assay on DMS 273 small cell lung of more than 100 µM.
Take `N#CNc1nc(C(=O)Nc2ccc(Cl)cc2)cc(-c2ccccc2)n1`: the TGI with XF 498 CNS, with DMS 273 small cell lung and in the assay on RXF-631 renal was more than 100 µM each time.
Consider `Cc1cccc(NC(=O)Cc2nc3ccccc3s2)c1C`, for which the TGI in the assay on XF 498 CNS, in the assay with DMS 273 small cell lung and with RXF-631 renal was more than 100 µM in each case.
In the case of `NC(=O)N/N=C1/CCCC/C1=C\c1ccccc1`, the TGI with DMS 273 small cell lung and in the assay with RXF-631 renal was more than 100 µM in each case.
As for `Nc1n[n+]([O-])c2cnccc2[n+]1[O-]`, the TGI in the assay with T-47D breast was more than 100 µM; with MDA-N, 36.6 µM; with DU-145 prostate, more than 100 µM; in the assay on HS 578T breast, more than 100 µM.
The compound `O=C(Cc1ccccc1)NN1C(=O)C(Cl)C1c1ccccc1` (stereo unspecified) registered a TGI in the assay on XF 498 CNS of 45.2 µM.
On to `COC(=O)C1CCC(N2C(=O)CCC2C(=O)OC)=N1` (stereo unspecified), for which the TGI in the assay with XF 498 CNS, in the assay with DMS 273 small cell lung and in the assay on RXF-631 renal was more than 100 µM throughout.
